Laboratory results: ChEMBL document CHEMBL5321257, “Development of VER-50589 analogs as novel Hsp90 inhibitors” (Bioorg Med Chem Lett, 2023)
Several values for one entry are separate records, joined by “and”; a condition that tells them apart may be missing. Identical values can stand only once. Activity calls are given as the source filed them. No cut-off for these calls is given here.

Experiments:
ES-2 = assay: Cytotoxicity against human ES2 cells by MTT assay; assay type: functional, cell-based
A549 [1] = assay: Cytotoxicity against human A549 cells by MTT assay; assay type: functional, cell-based
MCF7 = assay: Cytotoxicity against human MCF7 cells by MTT assay; assay type: functional, cell-based
Heat shock protein HSP90 [2] = biological target: T1, Heat shock protein HSP90 (Homo sapiens, UniProt P07900+P08238); assay: Inhibition of Hsp90 (unknown origin); assay type: protein assay
HeLa = assay: Cytotoxicity against human HeLa cells by MTT assay; assay type: functional, cell-based
[3] = Cytotoxicity against human 95-D cells by MTT assay; assay type: functional, cell-based
MDA-MB-231 = assay: Cytotoxicity against human MDA-MB-231 cells by MTT assay; assay type: functional, cell-based
A549 [4] = assay: Induction of cell cycle arrest in human A549 cells assessed as accumulation at G1 phase at 50 nM incubated for 48 hrs by flow cytometry (reference value: 61.70 %); assay type: functional
Heat shock protein HSP90 [5] = biological target: T1, Heat shock protein HSP90; assay: Inhibition of Hsp90 in human A549 cells assessed as downregulation of HER2 level by Western blot analysis; assay type: cell-based; settings: dose 25-100 nM
A549 [6] = assay: Induction of apoptosis in human A549 cells assessed as necrotic cells at 50 nM incubated for 48 hrs by annexin V-FITC/7-AAD staining based flow cytometry (reference value: 0.92 %); assay type: functional
A549 [7] = assay: Induction of cell cycle arrest in human A549 cells assessed as accumulation at G2/G1 phase at 50 nM incubated for 48 hrs by flow cytometry (reference value: 2 %); assay type: functional
A549 [8] = assay: Induction of cell cycle arrest in human A549 cells assessed as accumulation at G2 phase at 50 nM incubated for 48 hrs by flow cytometry (reference value: 2.53 %); assay type: functional
A549 [9] = assay: Induction of apoptosis in human A549 cells assessed as early apoptotic cells at 50 nM incubated for 48 hrs by annexin V-FITC/7-AAD staining based flow cytometry (reference value: 0.32 %); assay type: functional
A549 [10] = assay: Induction of apoptosis in human A549 cells assessed as late apoptotic cells at 50 nM incubated for 48 hrs by annexin V-FITC/7-AAD staining based flow cytometry (reference value: 0.64 %); assay type: functional
A549 [11] = assay: Induction of apoptosis in human A549 cells assessed as late apoptotic cells at 10 nM incubated for 48 hrs by annexin V-FITC/7-AAD staining based flow cytometry (reference value: 0.64 %); assay type: functional
A549 [12] = assay: Induction of apoptosis in human A549 cells assessed as necrotic cells at 200 nM incubated for 48 hrs by annexin V-FITC/7-AAD staining based flow cytometry (reference value: 0.92 %); assay type: functional
A549 [13] = assay: Induction of cell cycle arrest in human A549 cells assessed as accumulation at G1 phase at 10 nM incubated for 48 hrs by flow cytometry (reference value: 61.70 %); assay type: functional
A549 [14] = assay: Induction of cell cycle arrest in human A549 cells assessed as accumulation at G2 phase at 10 nM incubated for 48 hrs by flow cytometry (reference value: 2.53 %); assay type: functional
A549 [15] = assay: Induction of cell cycle arrest in human A549 cells assessed as accumulation at G1 phase at 200 nM incubated for 48 hrs by flow cytometry (reference value: 61.70 %); assay type: functional
A549 [16] = assay: Induction of apoptosis in human A549 cells assessed as viable cells at 200 nM incubated for 48 hrs by annexin V-FITC/7-AAD staining based flow cytometry (reference value: 96.1 %); assay type: functional; settings: read-out: Activity
A549 [17] = assay: Induction of apoptosis in human A549 cells assessed as early apoptotic cells at 200 nM incubated for 48 hrs by annexin V-FITC/7-AAD staining based flow cytometry (reference value: 0.32 %); assay type: functional
A549 [18] = assay: Induction of cell cycle arrest in human A549 cells assessed as accumulation at S phase at 200 nM incubated for 48 hrs by flow cytometry (reference value: 35.77 %); assay type: functional
A549 [19] = assay: Inhibition of colony formation in human A549 cells; assay type: functional, cell-based; settings: dose 10-20 nM
Heat shock protein HSP90 [20] = biological target: T1, Heat shock protein HSP90; assay: Inhibition of Hsp90 in human A549 cells assessed as downregulation of CDK4 level by Western blot analysis; assay type: cell-based; settings: dose 25-100 nM
A549 [21] = assay: Induction of cell cycle arrest in human A549 cells assessed as accumulation at G2 phase at 200 nM incubated for 48 hrs by flow cytometry (reference value: 2.53 %); assay type: functional
A549 [22] = assay: Induction of apoptosis in human A549 cells assessed as early apoptotic cells at 10 nM incubated for 48 hrs by annexin V-FITC/7-AAD staining based flow cytometry (reference value: 0.32 %); assay type: functional
A549 [23] = assay: Induction of apoptosis in human A549 cells assessed as necrotic cells at 10 nM incubated for 48 hrs by annexin V-FITC/7-AAD staining based flow cytometry (reference value: 0.92 %); assay type: functional
A549 [24] = assay: Induction of cell cycle arrest in human A549 cells assessed as accumulation at S phase at 10 nM incubated for 48 hrs by flow cytometry (reference value: 35.77 %); assay type: functional
A549 [25] = assay: Induction of cell cycle arrest in human A549 cells assessed as accumulation at G2/G1 phase at 10 nM incubated for 48 hrs by flow cytometry (reference value: 2 %); assay type: functional
A549 [26] = assay: Induction of cell cycle arrest in human A549 cells assessed as accumulation at G2/G1 phase at 200 nM incubated for 48 hrs by flow cytometry (reference value: 2 %); assay type: functional
Heat shock protein HSP90 [27] = biological target: T1, Heat shock protein HSP90; assay: Inhibition of Hsp90 in human A549 cells assessed as upregulation of Hsp70 level at 25 to 100 nM by Western blot analysis; assay type: cell-based; settings: dose 25-100 nM
A549 [28] = assay: Induction of apoptosis in human A549 cells assessed as late apoptotic cells at 200 nM incubated for 48 hrs by annexin V-FITC/7-AAD staining based flow cytometry (reference value: 0.64 %); assay type: functional
A549 [29] = assay: Induction of apoptosis in human A549 cells assessed as viable cells at 50 nM incubated for 48 hrs by annexin V-FITC/7-AAD staining based flow cytometry (reference value: 96.1 %); assay type: functional; settings: read-out: Activity
A549 [30] = assay: Anti-migration activity in human A549 cells at 0.3 to 3 nM incubated for 48 hrs by scratch wound healing assay; assay type: functional, cell-based; settings: dose 0.3-3 nM
A549 [31] = assay: Induction of apoptosis in human A549 cells assessed as viable cells at 10 nM incubated for 48 hrs by annexin V-FITC/7-AAD staining based flow cytometry (reference value: 96.1 %); assay type: functional; settings: read-out: Activity
A549 [32] = assay: Induction of cell cycle arrest in human A549 cells assessed as accumulation at S phase at 50 nM incubated for 48 hrs by flow cytometry (reference value: 35.77 %); assay type: functional

Row | Compound | IC50 (ES-2) [nM] | IC50 (A549 [1]) [nM] | IC50 (MCF7) [nM] | IC50 (Heat shock protein HSP90 [2]) [nM] | IC50 (HeLa) [nM] | IC50 [3] [nM] | IC50 (MDA-MB-231) [nM] | Activity (A549 [4]) [%] | Activity (A549 [6]) [%] | Activity (A549 [7]) [%] | Activity (A549 [8]) [%] | Activity (A549 [9]) [%] | Activity (A549 [10]) [%] | Activity (A549 [12]) [%] | Activity (A549 [15]) [%] | viability at 0.2 µM (A549 [16]) [%] | Activity (A549 [17]) [%] | Activity (A549 [18]) [%] | Activity (A549 [21]) [%] | Activity (A549 [26]) [%] | other results
1 | CCNC(=O)c1noc(-c2cc(C(C)C)c(O)cc2O)c1-c1ccc(P(C)(C)=O)cc1 | 156 | 730 | 230 | 171 | 210 | 676 | 214 |  |  |  |  |  |  |  |  |  |  |  |  |  | 
2 | CCNC(=O)c1noc(-c2cc(C(C)C)c(O)cc2O)c1-c1ccc(S(C)(=O)=O)cc1 | 8.6 | 8.65 | 1.35 | 9 | 2 | 1.69 | 2.81 | 70.94 | 2.24 | 2 | 13.38 | 1.7 | 3.1 | 2.94 | 78.26 | 82.5 | 5.98 | 6.98 | 14.76 | 2 | inhibition (Heat shock protein HSP90 [5]): Dose-Dependent Effect; Activity (A549 [11]): 1.15%; Activity (A549 [13]): 55.38%; Activity (A549 [14]): 3.19%; inhibition (A549 [19]): Dose-Dependent Effect; inhibition (Heat shock protein HSP90 [20]): Dose-Dependent Effect; Activity (A549 [22]): 2.74%; Activity (A549 [23]): 0.59%; Activity (A549 [24]): 41.43%; Activity (A549 [25]): 2%; inhibition (Heat shock protein HSP90 [27]): Active; Activity (A549 [28]; 48 h, 0.2 µM): 2.74% and 8.59%; viability at 0.05 µM (A549 [29]): 93%; Activity (A549 [30]): Active; viability at 0.01 µM (A549 [31]): 95.5%; Activity (A549 [32]): 15.68%
3 | CCNC(=O)c1noc(-c2cc(Cl)c(O)cc2O)c1-c1ccc(OC)cc1 | 50.4 | 223 | 69.6 |  | 219 |  | 75.8 |  |  |  |  |  |  |  |  |  |  |  |  |  | 
4 | CCNC(=O)c1noc(-c2cc(C(C)C)c(O)cc2O)c1-c1ccc([N+](=O)[O-])cc1 | 12.4 | 16.2 | 2.89 | 15 | 19 | 2.91 | 5.26 |  |  |  |  |  |  |  |  |  |  |  |  |  | 
5 | COC1=C2C[C@@H](C)C[C@H](OC)[C@H](O)[C@@H](C)/C=C(\C)[C@H](OC(N)=O)[C@@H](OC)/C=C\C=C(/C)C(=O)NC(=CC1=O)C2=O [GELDANAMYCIN] |  |  |  |  |  |  |  | 60.64 | 2.31 | 2 | 3.72 | 1.78 | 2.58 | 2.38 | 68.97 | 90.6 | 3.26 | 22 | 9.03 | 2 | Activity (A549 [28]): 3.77%; viability at 0.05 µM (A549 [29]): 93.3%; Activity (A549 [32]): 35.64%
